Results on 76 compounds are retold here after patent publication US12331033B2, “Inhibitors of SARM1” (Disarm Therapeutics, Inc., priority 2020, dated 2025).

Sequence of SARM1 (ARM-SAM-TIR) (Q6SZW1 other isoform, or with tags, fused parts or gaps): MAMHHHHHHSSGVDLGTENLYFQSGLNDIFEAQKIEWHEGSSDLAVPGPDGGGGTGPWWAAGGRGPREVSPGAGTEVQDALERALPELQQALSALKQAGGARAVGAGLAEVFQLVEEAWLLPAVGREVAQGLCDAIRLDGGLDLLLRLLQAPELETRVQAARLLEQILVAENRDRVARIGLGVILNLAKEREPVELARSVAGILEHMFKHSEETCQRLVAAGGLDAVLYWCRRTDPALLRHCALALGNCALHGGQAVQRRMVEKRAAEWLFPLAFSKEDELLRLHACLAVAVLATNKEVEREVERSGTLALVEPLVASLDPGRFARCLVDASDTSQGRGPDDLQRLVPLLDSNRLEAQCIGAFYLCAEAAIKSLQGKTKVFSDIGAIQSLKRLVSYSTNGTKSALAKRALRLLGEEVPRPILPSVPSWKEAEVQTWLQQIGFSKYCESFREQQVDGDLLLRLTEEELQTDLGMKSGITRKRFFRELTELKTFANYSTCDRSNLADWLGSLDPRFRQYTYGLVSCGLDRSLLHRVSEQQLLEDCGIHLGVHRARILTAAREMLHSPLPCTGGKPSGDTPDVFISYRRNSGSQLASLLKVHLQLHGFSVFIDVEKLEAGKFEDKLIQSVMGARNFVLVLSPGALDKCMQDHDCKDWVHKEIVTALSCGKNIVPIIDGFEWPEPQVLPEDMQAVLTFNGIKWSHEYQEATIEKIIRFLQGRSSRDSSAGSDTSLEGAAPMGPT

For the assay, the target named is SARM1 (ARM-SAM-TIR) (Homo sapiens (Human), UniProt Q6SZW1). The assay is described as follows: ARM-SAM-TIR SARM1 IC50 assay (NADase activity, NAD+ cleavage, RapidFire MS). In kind it is biochemical. The note with it: ARM-SAM-TIR lysate 5 μg/mL, 2 h pre-incubation, 5 μM NAD+, 2 hr room temperature. The method, boiled down:
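Lysate of NRK1-HEK293T cells transfected with full-length ARM-SAM-TIR SARM1 (5 μg/mL final) pre-incubated with compound (1% DMSO) 2 h at room temperature in Dulbecco's PBS. Reaction started with 5 μM NAD+, run 2 hr at room temperature, then stopped with TCA/acetonitrile. NAD+ and ADPR quantified by RapidFire MS.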
Consider `Cc1c(-c2ccncc2)n[nH]c1NC(=O)CCc1ccc(Cl)c(F)c1` [Example 188], for which the IC50 (as a rule, the concentration that gives 50% inhibition) is less than 5 µM.

Consider `[2H]C([2H])(C(=O)Nc1cc(-c2ccnnc2)n[nH]1)C([2H])([2H])c1ccc(Cl)cc1` [Example 189], for which the IC50 is less than 5 µM.

As for `[2H]C([2H])(C(=O)Nc1cc(-c2ccnnc2)n[nH]1)C([2H])([2H])c1ccc(Cl)nc1` [Example 190], the half-maximal inhibitory concentration (IC50) was less than 5 µM.

For `[2H]C([2H])(C(=O)Nc1nnc(-c2ccnnc2)[nH]1)C([2H])([2H])c1ccc(Cl)nc1` [Example 191], the IC50 is less than 5 µM.

The compound `O=C(CC1CCOc2cc(Cl)ccc21)Nc1cc(-c2ccnnc2)n[nH]1` (stereo not shown) [Example 192] came in with a half-maximal inhibitory concentration (IC50) of less than 5 µM.

The compound `O=C(CC1CCOc2cc(Cl)ccc21)Nc1nnc(-c2ccnnc2)[nH]1` (stereo not shown) [Example 193] showed an IC50 of less than 5 µM.

Compound `O=C(CCc1ccc(Cl)cc1)Nc1[nH]nc(-c2ccncc2)c1CO` [Example 194] displayed a half-maximal inhibitory concentration (IC50) of less than 5 µM.

For the compound `N#Cc1c(-c2ccncc2)n[nH]c1NC(=O)CCc1ccc(Cl)nc1` [Example 195], the concentration for half-maximal inhibition (IC50) was less than 5 µM.

With `O=C(Nc1nnc(-c2ccnnc2)[nH]1)[C@H]1C[C@H](c2ccc(Cl)cc2)C1` [Example 196], the IC50 is less than 5 µM.

Turning to `O=C(Nc1cc(-c2ccnnc2)n[nH]1)[C@H]1C[C@H](c2ccc(Cl)cc2)C1` [Example 197], the half-maximal inhibitory concentration (IC50) is less than 5 µM.

For the compound `Cc1cnccc1-c1cc(NC(=O)CCc2ccc(Cl)cc2)[nH]n1` [Example 198], the IC50 is less than 5 µM.

In turn, `Cc1c(-c2ccncc2)n[nH]c1NC(=O)CC1Cc2ccccc2C1` [Example 199] showed an IC50 of 5 to 15 µM.

In turn, `Cc1c(-c2ccncc2)n[nH]c1NC(=O)CCc1ccc(C(F)(F)F)cc1` [Example 200] displayed an IC50 of less than 5 µM.

The compound `Cc1c(-c2ccncc2)n[nH]c1NC(=O)[C@@H](N)Cc1ccc(Cl)cc1` [Example 201] yielded an IC50 of less than 5 µM.

As for `Cc1c(-c2ccncc2)n[nH]c1NC(=O)CCc1ccc(Cl)s1` [Example 202], the IC50 is less than 5 µM.

As for `O=C(CCc1ccc(Cl)cc1)Nc1[nH]nc(-c2ccncc2)c1C1CCC1` [Example 203], the IC50 is less than 5 µM.

In turn, `O=C(CCc1ccc(Cl)nc1)Nc1[nH]nc(-c2ccncc2)c1C1CCC1` [Example 204] returned an IC50 of 5 to 15 µM.

`Cc1c(-c2ccnnc2)n[nH]c1NC(=O)CCc1ccc(Cl)nc1` [Example 205] showed an IC50 of less than 5 µM.

The compound `O=C(C[C@H]1CCOc2cc(Cl)ccc21)Nc1cc(-c2ccnnc2)n[nH]1` [Example 206] registered an IC50 of less than 5 µM.

Turning to `O=C(C[C@@H]1CCOc2cc(Cl)ccc21)Nc1cc(-c2ccnnc2)n[nH]1` [Example 207], the concentration for half-maximal inhibition (IC50) is less than 5 µM.

`O=C(C[C@H]1CCOc2cc(Cl)ccc21)Nc1nnc(-c2ccncc2)[nH]1` [Example 208] returned an IC50 of less than 5 µM.

`O=C(C[C@@H]1CCOc2cc(Cl)ccc21)Nc1nnc(-c2ccncc2)[nH]1` [Example 209] gave a half-inhibitory concentration (IC50) of less than 5 µM.

For the compound `O=C(Nc1cc(-c2ccnnc2)n[nH]1)[C@H]1C[C@H](c2ccc(Cl)nc2)C1` [Example 210], the concentration for half-maximal inhibition (IC50) was less than 5 µM.

Regarding `N#Cc1c(-c2ccncc2)c[nH]c1NC(=O)CCc1ccc(Cl)nc1` [Example 211], the IC50 was less than 5 µM.

Compound `O=C(C[C@H]1CCOc2cc(Cl)ccc21)Nc1cc(-c2ccncc2)n[nH]1` [Example 212] gave a half-inhibitory concentration (IC50) of less than 5 µM.

In turn, `O=C(C[C@@H]1CCOc2cc(Cl)ccc21)Nc1cc(-c2ccncc2)n[nH]1` [Example 213] displayed a half-inhibitory concentration (IC50) of less than 5 µM.

Consider `Cc1c(-c2ccncc2)n[nH]c1NC(=O)C[C@H]1CCOc2cc(Cl)ccc21` [Example 214], for which the half-inhibitory concentration (IC50) is less than 5 µM.

`Cc1c(-c2ccncc2)n[nH]c1NC(=O)C[C@@H]1CCOc2cc(Cl)ccc21` [Example 215]: the 50% inhibitory concentration (IC50) was less than 5 µM.

`Cc1c(-c2ccncc2)n[nH]c1NC(=O)N1CC(c2ccccc2)C1` [Example 216] returned an IC50 of less than 5 µM.

`Cc1cnccc1-c1nnc(NC(=O)CCc2ccc(Cl)cc2)[nH]1` [Example 217] showed a concentration for half-maximal inhibition (IC50) of less than 5 µM.

`Cc1c(-c2ccncc2)n[nH]c1NC(=O)N1CC(c2ccc(Cl)cc2)C1` [Example 218] registered an IC50 of less than 5 µM.

Consider `CCc1c(-c2ccncc2)n[nH]c1NC(=O)CCc1ccc(Cl)nc1` [Example 219], for which the half-inhibitory concentration (IC50) was less than 5 µM.

Compound `Cc1c(-c2ccncc2)n[nH]c1NC(=O)C1CN(c2ccc(Cl)cc2)C1` [Example 220] showed a 50% inhibitory concentration (IC50) of 5 to 15 µM.

As to `Cc1c(-c2ccncc2)n[nH]c1NC(=O)CCc1ccc(F)cc1` [Example 221], the IC50 is less than 5 µM.

In the case of `Cc1c(-c2ccncc2)n[nH]c1NC(=O)CCc1cc(F)cc(F)c1` [Example 222], the IC50 is less than 5 µM.

Turning to `Cc1c(-c2ccncc2)n[nH]c1NC(=O)C(O)Cc1ccc(Cl)cc1` (stereo not shown) [Example 223], the IC50 is less than 5 µM.

On to `Cc1c(-c2ccncc2)n[nH]c1NC(=O)CN(C)c1ccc(Cl)cc1` [Example 224], for which the 50% inhibitory concentration (IC50) is 5 to 15 µM.

For `N#Cc1cnccc1-c1nnc(NC(=O)CCc2ccc(Cl)cc2)[nH]1` [Example 225], the concentration for half-maximal inhibition (IC50) was less than 5 µM.

In the case of `O=C(Nc1nnc(-c2ccncc2)[nH]1)NC1CCOc2cc(Cl)ncc21` (stereo not shown) [Example 226], the IC50 was less than 5 µM.

Compound `O=C(CCc1ccc(Cl)cc1)Nc1[nH]nc(-c2ccncc2)c1C1CC1` [Example 227] yielded a concentration for half-maximal inhibition (IC50) of less than 5 µM.

`O=C(CCc1ccc(Cl)nc1)Nc1[nH]nc(-c2ccncc2)c1C1CC1` [Example 228] registered a half-inhibitory concentration (IC50) of less than 5 µM.

On to `CCOC(=O)Cc1c(-c2ccncc2)n[nH]c1NC(=O)CCc1ccc(Cl)cc1` [Example 229], for which the IC50 was less than 5 µM.

With `[2H]C([2H])(C(=O)Nc1nnc(-c2ccnnc2)[nH]1)C([2H])([2H])c1ccc(Cl)cc1` [Example 230], the IC50 is less than 5 µM.

`Cc1c(-c2ccnnc2)n[nH]c1NC(=O)CC1CCOc2cc(Cl)ccc21` (stereo not shown) [Example 231] had an IC50 of less than 5 µM.

Turning to `O=C(C[C@H]1CCOc2nc(Cl)ccc21)Nc1nnc(-c2ccncc2)[nH]1` [Example 232], the IC50 is less than 5 µM.

`O=C(C[C@@H]1CCOc2nc(Cl)ccc21)Nc1nnc(-c2ccncc2)[nH]1` [Example 233]: the half-maximal inhibitory concentration (IC50) was less than 5 µM.

For the compound `O=C(C[C@H]1CCOc2cc(Cl)ncc21)Nc1nnc(-c2ccncc2)[nH]1` [Example 234], the IC50 was less than 5 µM.

`O=C(C[C@H]1CCOc2cc(Cl)ncc21)Nc1nnc(-c2ccncc2)[nH]1` [Example 235] had an IC50 of 5 to 15 µM.

In turn, `O=C(Nc1cc(-c2ccncc2)n[nH]1)[C@H]1C[C@H](c2ccc(Cl)nc2)C1` [Example 236] displayed a 50% inhibitory concentration (IC50) of less than 5 µM.

Turning to `Cc1c(-c2ccncc2)n[nH]c1NC(=O)[C@H]1C[C@H](c2ccc(Cl)nc2)C1` [Example 237], the concentration for half-maximal inhibition (IC50) is less than 5 µM.

Turning to `N#Cc1cnccc1-c1cc(NC(=O)CCc2ccc(Cl)cc2)[nH]n1` [Example 238], the concentration for half-maximal inhibition (IC50) is less than 5 µM.

On to `CN(C(=O)CCc1ccc(Cl)nc1)c1cc(-c2ccncc2)n[nH]1` [Example 239], for which the IC50 was less than 5 µM.

`Cc1nn(C)c(C)c1OCC(=O)Nc1[nH]nc(-c2ccncc2)c1C` [Example 240] had an IC50 of 5 to 15 µM.

In turn, `Cc1c(-c2ccncc2)n[nH]c1NC(=O)Cn1cc(C)c2ccccc21` [Example 241] registered an IC50 of 5 to 15 µM.

The compound `Cc1c(-c2ccncc2)n[nH]c1NC(=O)c1ccc(-n2ccnn2)cc1` [Example 242] gave an IC50 of 5 to 15 µM.

In turn, `Cc1c(-c2ccncc2)n[nH]c1NC(=O)CCNC(=O)C1CC1C` (stereo not shown) [Example 243] showed an IC50 of 5 to 15 µM.

`CCC(C)c1cc(C(=O)Nc2[nH]nc(-c3ccncc3)c2C)on1` (stereo not shown) [Example 244] yielded an IC50 of 5 to 15 µM.

For `Cc1c(-c2ccncc2)n[nH]c1NC(=O)CCc1nc2ccccc2s1` [Example 245], the IC50 lay in the range of 5 to 15 µM.

Compound `Cc1c(-c2ccncc2)n[nH]c1NC(=O)CC(C)c1ccc(F)cc1` (stereo not shown) [Example 246] had an IC50 of less than 5 µM.

`Cc1c(-c2ccncc2)n[nH]c1NC(=O)/C=C/c1c(F)cccc1F` [Example 247] returned an IC50 of 5 to 15 µM.

`Cc1c(-c2ccncc2)n[nH]c1NC(=O)CCc1cccc(Cl)c1` [Example 248] had an IC50 of less than 5 µM.

Regarding `Cc1c(-c2ccncc2)n[nH]c1NC(=O)CCc1cc(F)ccc1F` [Example 249], the half-maximal inhibitory concentration (IC50) is less than 5 µM.

`Cc1[nH]c(NC(=O)CCc2ccc(Cl)nc2)nc1-c1ccncc1` [Example 250] showed an IC50 of less than 5 µM.

Compound `Cc1c(-c2ccncc2)n[nH]c1NC(=O)CCc1nc(C2CC2)no1` [Example 251] gave an IC50 of 5 to 15 µM.

Take `Cc1c(-c2ccncc2)n[nH]c1NC(=O)c1ccc(OCC2CC2)cc1` [Example 252]: the IC50 is 5 to 15 µM.

Consider `Cc1c(-c2ccncc2)n[nH]c1NC(=O)COc1ccc(C#N)cc1` [Example 253], for which the IC50 lay within 5 to 15 µM.

In the case of `Cc1cccc(CS(=O)(=O)Nc2[nH]nc(-c3ccncc3)c2C)c1` [Example 254], the IC50 is 5 to 15 µM.

In turn, `Cc1c(-c2ccncc2)n[nH]c1NC(=O)c1ccc(OC2CCC2)cc1` [Example 255] came in with an IC50 of 5 to 15 µM.

With `CCc1c(-c2ccncc2)n[nH]c1NC(=O)CN1CCCc2sccc2C1=O` [Example 256], the 50% inhibitory concentration (IC50) was in the range of 5 to 15 µM.

As for `Cc1ccc(OCC(=O)Nc2[nH]nc(-c3ccncc3)c2C)cc1` [Example 257], the IC50 was in the range of 5 to 15 µM.

In turn, `Cc1c(-c2ccncc2)n[nH]c1NC(=O)CNC(=O)CC(C)(C)C` [Example 259] displayed an IC50 of 5 to 15 µM.

For the compound `Cc1c(-c2ccncc2)n[nH]c1NC(=O)CCc1ccc(C(F)(F)F)nc1` [Example 261], the concentration for half-maximal inhibition (IC50) was less than 5 µM.

In turn, `Cc1c(-c2ccncc2)n[nH]c1NC(=O)CCc1ccc(C#N)cc1` [Example 262] registered an IC50 of less than 5 µM.

In the case of `CNC(=O)Cc1c(-c2ccncc2)n[nH]c1NC(=O)CCc1ccc(Cl)cc1` [Example 263], the IC50 is less than 5 µM.

In turn, `O=C(CCc1ccc(Cl)cc1)Nc1[nH]nc(-c2ccnnc2)c1C1CCC1` [Example 264] displayed a 50% inhibitory concentration (IC50) of less than 5 µM.

As for `O=C(CCc1ccc(Cl)nc1)Nc1[nH]nc(-c2ccnnc2)c1C1CCC1` [Example 265], the half-inhibitory concentration (IC50) was less than 5 µM.
